Consider seven molecules from publication PMC4844176 (Xenobiotica; the fate of foreign compounds in biological …, 2015).

Series [1] has as its system human liver microsomes (HLM). The series is described as follows: Inhibition of aprepitant glucuronidation by UGT specific inhibitors in HLM. To be noted: for inhibition of aprepitant glucuronidation: aprepitant at 5 µM and at the Kms. Format: in vitro ADME.
Series [2] has as its target T1, UGT1A4 (Homo sapiens, UniProt P22310).
T1 sequence (P22310 29-534): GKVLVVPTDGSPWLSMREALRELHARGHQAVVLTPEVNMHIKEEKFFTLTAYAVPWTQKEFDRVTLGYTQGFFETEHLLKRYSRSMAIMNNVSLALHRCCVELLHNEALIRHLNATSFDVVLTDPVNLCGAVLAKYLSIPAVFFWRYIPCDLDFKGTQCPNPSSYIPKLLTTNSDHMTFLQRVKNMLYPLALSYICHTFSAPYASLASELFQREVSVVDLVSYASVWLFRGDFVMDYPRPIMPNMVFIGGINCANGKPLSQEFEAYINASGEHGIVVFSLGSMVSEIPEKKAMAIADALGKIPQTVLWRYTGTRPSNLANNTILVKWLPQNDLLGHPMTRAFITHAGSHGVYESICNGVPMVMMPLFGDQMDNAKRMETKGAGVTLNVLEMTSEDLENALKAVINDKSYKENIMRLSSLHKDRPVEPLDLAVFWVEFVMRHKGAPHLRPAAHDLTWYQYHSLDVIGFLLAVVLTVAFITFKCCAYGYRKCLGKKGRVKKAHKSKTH

Series [3] deals with T1, UGT1A4. The series is described as follows: Inhibition of aprepitant glucuronidation by UGT specific inhibitors in UGT1A4. Conditions: UGT1A4, aprepitant 5 µM, 200 µM hecogenin.
Series [4] deals with human intestinal microsomes (HIM).
The target in the next series is T2, UGT1A8 (Homo sapiens, UniProt Q9HAW9).
T2 sequence (Q9HAW9 26-530): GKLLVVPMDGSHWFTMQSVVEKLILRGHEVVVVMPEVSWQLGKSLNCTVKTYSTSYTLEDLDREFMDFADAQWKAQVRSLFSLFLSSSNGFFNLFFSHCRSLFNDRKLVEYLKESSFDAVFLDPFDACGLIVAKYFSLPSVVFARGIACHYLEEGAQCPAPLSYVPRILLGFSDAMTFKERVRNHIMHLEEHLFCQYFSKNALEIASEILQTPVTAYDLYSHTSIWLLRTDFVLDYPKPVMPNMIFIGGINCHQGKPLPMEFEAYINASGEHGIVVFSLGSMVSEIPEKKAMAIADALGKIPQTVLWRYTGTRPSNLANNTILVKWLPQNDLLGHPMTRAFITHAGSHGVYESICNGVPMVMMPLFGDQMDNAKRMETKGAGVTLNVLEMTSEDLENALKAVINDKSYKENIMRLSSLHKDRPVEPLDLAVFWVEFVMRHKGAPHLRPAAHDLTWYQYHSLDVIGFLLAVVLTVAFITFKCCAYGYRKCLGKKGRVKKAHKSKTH
The series is described as follows: in vitro. To be noted: UGT1A8 Supersomes, pH 7.5, probe aprepitant […] (Km), AP-G formation.

Another series addresses T3, UGT2B7 (Homo sapiens, UniProt P16662).
T3 sequence (P16662 24-529): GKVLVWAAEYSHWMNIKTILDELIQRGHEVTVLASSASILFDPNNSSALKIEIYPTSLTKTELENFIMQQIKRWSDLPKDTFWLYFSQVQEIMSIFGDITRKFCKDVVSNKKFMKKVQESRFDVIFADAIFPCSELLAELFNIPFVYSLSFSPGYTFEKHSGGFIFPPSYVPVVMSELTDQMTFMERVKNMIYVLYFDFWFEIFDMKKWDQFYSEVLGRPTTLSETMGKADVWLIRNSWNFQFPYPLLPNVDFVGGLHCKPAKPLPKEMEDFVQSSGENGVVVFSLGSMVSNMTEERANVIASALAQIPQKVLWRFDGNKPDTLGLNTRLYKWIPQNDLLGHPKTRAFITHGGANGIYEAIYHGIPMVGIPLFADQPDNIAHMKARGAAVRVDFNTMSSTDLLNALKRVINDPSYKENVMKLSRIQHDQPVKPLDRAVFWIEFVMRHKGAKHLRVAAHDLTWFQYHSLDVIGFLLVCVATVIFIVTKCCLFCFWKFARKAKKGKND
Conditions: ref Veal et al., 1995; Barbier et al., 2000; cited from earlier work.

Series [5] addresses T4, UGT1A3 (Homo sapiens, UniProt P35503).
T4 sequence (P35503 29-534): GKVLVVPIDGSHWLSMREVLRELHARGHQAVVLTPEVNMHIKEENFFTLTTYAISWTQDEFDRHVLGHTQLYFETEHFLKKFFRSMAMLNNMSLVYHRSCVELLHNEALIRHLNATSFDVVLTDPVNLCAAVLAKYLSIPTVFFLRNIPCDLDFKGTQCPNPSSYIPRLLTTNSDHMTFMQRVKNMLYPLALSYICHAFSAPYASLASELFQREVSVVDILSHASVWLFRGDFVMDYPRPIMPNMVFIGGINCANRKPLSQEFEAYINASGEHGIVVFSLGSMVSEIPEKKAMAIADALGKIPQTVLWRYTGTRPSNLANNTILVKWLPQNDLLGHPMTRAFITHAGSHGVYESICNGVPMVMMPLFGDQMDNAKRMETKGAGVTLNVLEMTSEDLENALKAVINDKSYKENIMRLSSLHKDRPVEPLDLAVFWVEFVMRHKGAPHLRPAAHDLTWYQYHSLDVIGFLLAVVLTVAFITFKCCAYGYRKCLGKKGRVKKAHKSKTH
Kind of series: Inhibition of aprepitant glucuronidation by UGT specific inhibitors in UGT1A3. To be noted: UGT1A3 Supersomes, pH 7.5, probe aprepitant 5 µM, AP-G formation.

In series [6] the target is T4, UGT1A3. Kind of series: in vitro. Conditions: UGT1A3 Supersomes, pH 7.5, probe aprepitant […] µM (Km), AP-G formation.
Substrate in the series “not read”: C[C@@H](O[C@H]1OCCN(Cc2n[nH]c(=O)[nH]2)[C@H]1c1ccc(F)cc1)c1cc(C(F)(F)F)cc(C(F)(F)F)c1
Kind of series: not read. To be noted: mean ± SE, pH 7.5, 37.0 °C.

The mark [7] stands for this setting: aprepitant 5 µM, 1000 µM sulfinpyrazone or 200 µM hecogenin.

Values joined by “and” are separate entries in the source; they are usually repeats but may differ in a detail not shown here. Equal values may be shown once.

By inhibition is commonly meant the share of the control response that was lost under treatment. A lower inhibition goes with a response near the control. Take hecogenin: the “Percent inhibition of aprepitant glucuronidation” value in [1] (setting [7]) came out at 100%; in [1] (aprepitant […] (Km for UGT1A4), 200 µM hecogenin) it was 80.8%; at UGT1A4 [3], 100%. Besides, the “inhibition of aprepitant glucuronidation” value in series [1] is “high inhibition”. At UGT1A4 [2], this molecule came in with an inhibition of 83.9%.

`O=C(O)Cc1ccccc1Nc1c(Cl)cccc1Cl` [diclofenac]: the inhibition in series [4] was 100%. This molecule also registered an inhibition at 60 min, 500 µM against UGT1A8 of 66.7%.

For the molecule `Cc1cn([C@H]2C[C@H](N=[N+]=[N-])[C@@H](CO)O2)c(=O)[nH]c1=O` [AZT, 3’-azido-3’-deoxythymidine], the “share of glucuronidation catalyzed by UGT2B7” value at UGT2B7 is 60–70%.

`O=C1C(CC[S+]([O-])c2ccccc2)C(=O)N(c2ccccc2)N1c1ccccc1` (stereo not shown) [sulfinpyrazone]: the “Percent inhibition of aprepitant glucuronidation” value in series [1] (setting [7]) came out at 22.2%; in [1] (aprepitant […] µM (Km for UGT1A3), 1000 µM sulfinpyrazone) it was 22.1%. In addition, the “inhibition of aprepitant glucuronidation” value in series [1] is < 25%. Besides, the inhibition at 60 min, 1000 µM against UGT1A3 [5] and against UGT1A3 [6] was 100% throughout.

B1: UGT1A4 (Homo sapiens) (protein)
chain: T1 sequence (P22310 29-534)
Regarding B1, the K0.5 in the series “not read” (other: UGT1A4, Michaelis-Menten) was 161.6 ± 15.6 µM and 162 ± 16 µM.

B2: UGT1A8 (Homo sapiens) (protein)
chain: T2 sequence (Q9HAW9 26-530)
Turning to B2, the K0.5 in the series “not read” (other: UGT1A8, Hill equation (S50)) was 197.1 ± 28.2 µM and 197 ± 28 µM.

B3: UGT1A3 (Homo sapiens) (protein)
chain: T4 sequence (P35503 29-534)
Consider B3, for which the K0.5 in the series “not read” (other: UGT1A3, Michaelis-Menten) is 69.4 ± 1.9 µM and 69 ± 2 µM.
